Here are results for 25 compounds from patent US10093623B2, “Cyclic amides as MetAP-2 inhibitors” (MERCK PATENT GmbH, priority 2012, dated 2018).

This test addresses MetAP-2 (Homo sapiens, UniProt P50579). In words: MetAP-2 activity measurement (coupled enzymatic reactions, Met-Arg-Ser substrate, dianisidine detection at 450 nm). The format is biochemical. Conditions: Inhibition of MetAP-2; read-out: IC50 enzyme. The method, boiled down: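 Rate read from the linear part of the 450 nm absorbance trace. Dianisidine oxidation by peroxidase reports H2O2 made when amino acid oxidase acts on methionine cleaved from MAS tripeptide, one mol dye per mol Met; extinction coefficient gives molar activity.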

MetAP-2, sequence (P50579 whole entry, species assumed): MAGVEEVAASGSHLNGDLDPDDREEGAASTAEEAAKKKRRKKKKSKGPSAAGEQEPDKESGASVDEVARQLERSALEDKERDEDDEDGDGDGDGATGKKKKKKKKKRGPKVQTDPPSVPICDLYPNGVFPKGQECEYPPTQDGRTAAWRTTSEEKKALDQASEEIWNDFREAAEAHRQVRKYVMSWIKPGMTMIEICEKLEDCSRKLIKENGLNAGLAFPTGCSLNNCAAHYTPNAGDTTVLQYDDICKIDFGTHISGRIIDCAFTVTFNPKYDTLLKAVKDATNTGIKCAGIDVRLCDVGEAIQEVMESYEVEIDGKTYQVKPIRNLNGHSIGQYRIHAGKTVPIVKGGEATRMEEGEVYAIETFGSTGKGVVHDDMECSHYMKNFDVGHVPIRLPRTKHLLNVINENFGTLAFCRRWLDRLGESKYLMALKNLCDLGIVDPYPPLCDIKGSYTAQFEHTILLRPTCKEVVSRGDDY

As for `O=C(NCc1cc(F)cc(Cl)c1)[C@@]1(O)CCN(c2cnc3[nH]cnc3c2)C1=O` [B92, N-(3-Chloro-5-fluorobenzyl)-(S)-3-hydroxy-1-(3H-imidazo-[4,5-b]pyridin-6-yl)-2-oxo-pyrrolidine-3-carboxamide], the half-maximal inhibitory concentration (IC50) – broadly, the concentration at which inhibition is half-maximal – lay in the range of 0.01 to 1 µM.

Take `O=C(NCc1cc(F)cc(Cl)c1)[C@@]1(O)CCN(Cc2n[nH]c3ccccc23)C1=O` [B60, N-(3-Chloro-5-fluorobenzyl)-(S)-3-hydroxy-1-(1H-indazol-3-ylmethyl)-2-oxopyrrolidine-3-carboxamide]: the half-inhibitory concentration (IC50) fell in the range of 0.01 to 1 µM.

As for `NC(=O)c1cccc(NC(=O)c2cccc(N3CCC(O)(C(=O)NCc4cc(F)cc(Cl)c4)C3=O)c2)c1` (stereo not shown) [A69, N-(3-Chloro-5-fluorobenzyl)-1-[3-(3-carbamoylphenylcarbamoyl)-phenyl]-3-hydroxy-2-oxo-pyrrolidine-3-carboxamide], the 50% inhibitory concentration (IC50) lay within 0.01 to 1 µM.

`O=C1COCCN1c1ccc(N2CCC(O)(C(=O)NCc3cc(F)cc(Cl)c3)C2=O)cn1` (stereo not shown) [A167, N-(3-Chloro-5-fluorobenzyl)-3-hydroxy-2-oxo-1-[6-(3-oxo-morpholin-4-yl)-pyridin-3-yl]-pyrrolidine-3-carboxamide]: the half-inhibitory concentration (IC50) was 0.01 to 1 µM.

Regarding `O=C1N(Cc2ccccc2)CCC[C@@]1(O)CNCc1cc(F)cc(Cl)c1` [B55, (R)-1-Benzyl-3-[(3-chloro-5-fluorobenzylamino)methyl]-3-hydroxypiperidin-2-one], the 50% inhibitory concentration (IC50) fell in the range of 1 to 10 µM.

With `O=C1Nc2ccc(N3CC[C@@](O)(C(=O)NCc4cc(F)cc(Cl)c4)C3=O)cc2C1(F)F` [A288, N-(3-Chloro-5-fluorobenzyl)-(R)-1-(3,3-difluoro-2-oxo-2,3-dihydro-1H-indol-5-yl)-3-hydroxy-2-oxopyrrolidine-3-carboxamide], the IC50 is > 10 µM.

For the compound `CC(=O)NS(=O)(=O)c1ccc(N2CCC(O)(C(=O)NCc3cc(F)cc(Cl)c3)C2=O)cc1` (stereo not shown) [B118, N-(3-Chloro-5-fluorobenzyl)-1-(4-acetylsulfamoylphenyl)-3-hydroxy-2-oxopyrrolidine-3-carboxamide], the IC50 was in the range of 0.01 to 1 µM.

In the case of `O=C(c1cc2cc(N3CC[C@](O)(C(=O)NCc4cc(F)cc(Cl)c4)C3=O)ccc2[nH]1)N1CCOCC1` [B112, N-(3-Chloro-5-fluorobenzyl)-(S)-3-hydroxy-1-[2-(morpholine-4-carbonyl)-1H-indol-5-yl]-2-oxo-pyrrolidine-3-carboxamide], the concentration for half-maximal inhibition (IC50) lay in the range of 0.01 to 1 µM.

For `O=C(NCc1cc(F)cc(Cl)c1)[C@]1(O)CCN(OCc2ccccc2)C1=O` [B138, N-(3-Chloro-5-fluorobenzyl)-(R)-1-benzyloxy-3-hydroxy-2-oxo-pyrrolidine-3-carboxamide], the IC50 was > 10 µM.

As to `Cc1ccc(N2CC[C@](O)(C(=O)NCc3cc(F)cc(Cl)c3)C2=O)c(F)c1` [B66, N-(3-Chloro-5-fluorobenzyl)-(S)-1-(2-fluoro-4-methylphenyl)-3-hydroxy-2-oxopyrrolidine-3-carboxamide], the half-maximal inhibitory concentration (IC50) is 0.01 to 1 µM.

For the compound `Cn1cncc1CN1CCC(O)(C(=O)NCc2cc(F)cc(Cl)c2)C1=O` (stereo not shown) [A272, N-(3-Chloro-5-fluorobenzyl)-3-hydroxy-1-(3-methyl-3H-imidazol-4-ylmethyl)-2-oxo-pyrrolidine-3-carboxamide], the IC50 was in the range of 1 to 10 µM.

For `O=C1CCc2cc(N3CCC(O)(C(=O)NCCc4ccccc4F)C3=O)ccc2N1` (stereo not shown) [A184, N-[2-(2-Fluorophenyl)ethyl]-3-hydroxy-2-oxo-1-(2-oxo-1,2,3,4-tetrahydroquinolin-6-yl)-pyrrolidine-3-carboxamide], the IC50 was in the range of 0.01 to 1 µM.

Consider `O=C(CN1CCC(O)(C(=O)NCc2cc(F)cc(Cl)c2)C1=O)NCCO` (stereo not shown) [A282, N-(3-Chloro-5-fluorobenzyl)-3-hydroxy-1-[(2-hydroxy-ethylcarbamoyl)methyl]-2-oxo-pyrrolidine-3-carboxamide], for which the IC50 was 1 to 10 µM.

Take `CC1CCC(N2CCC(O)(C(=O)NCc3cc(F)cc(Cl)c3)C2=O)CC1` (stereo not shown) [A293, N-(3-Chloro-5-fluorobenzyl)-3-hydroxy-1-(4-methylcyclohexyl)-2-oxopyrrolidine-3-carboxamide]: the concentration for half-maximal inhibition (IC50) was 0.01 to 1 µM.

Consider `N#Cc1c[nH]c2ccc(N3CCC(O)(C(=O)NCc4cc(F)cc(Cl)c4)C3=O)cc12` (stereo not shown) [A87, N-(3-Chloro-5-fluorobenzyl)-1-(3-cyano-1H-indol-5-yl)-3-hydroxy-2-oxopyrrolidine-3-carboxamide], for which the concentration for half-maximal inhibition (IC50) fell in the range of 0.01 to 1 µM.

Take `O=C(NCc1cc(F)cc(Cl)c1)C1(O)CCN(c2cnc3[nH]cc(C(F)(F)F)c3c2)C1=O` (stereo not shown) [B104, N-(3-Chloro-5-fluorobenzyl)-3-hydroxy-2-oxo-1-(3-trifluoro-methyl-1H-pyrrolo[2,3-b]pyridin-5-yl)pyrrolidine-3-carboxamide]: the concentration for half-maximal inhibition (IC50) lay within 0.01 to 1 µM.

For the compound `NC(=O)c1cc(N2CCC(O)(C(=O)NCc3cc(F)cc(Cl)c3)C2=O)cc(C(F)(F)F)c1` (stereo not shown) [A204, N-(3-Chloro-5-fluorobenzyl)-1-(3-carbamoyl-5-trifluoromethyl-phenyl)-3-hydroxy-2-oxo-pyrrolidine-3-carboxamide], the concentration for half-maximal inhibition (IC50) fell in the range of 1 to 10 µM.

With `O=C(NCc1cc(F)cc(Cl)c1)[C@@]1(O)CCN(c2cnc3[nH]c(C(F)(F)F)cc3c2)C1=O` [B83, N-(3-Chloro-5-fluorobenzyl)-(S)-3-hydroxy-2-oxo-1-(2-trifluoromethyl-1H-pyrrolo-[2,3-b]pyridin-5-yl)pyrrolidine-3-carboxamide], the half-maximal inhibitory concentration (IC50) lay within 0.01 to 1 µM.

Consider `O=C(NCc1ccc(F)cc1)[C@]1(O)CCCN(Cc2cccc(F)c2F)C1=O` [A262, N-(4-Fluorobenzyl)-(R)-1-(2,3-difluorobenzyl)-3-hydroxy-2-oxo-piperidine-3-carboxamide], for which the IC50 is > 10 µM.

Regarding `O=C(NCc1cc(F)cc(Cl)c1)C1(O)CCN(c2ccc3[nH]c(=O)ccc3c2)C1=O` (stereo not shown) [A147, N-(3-Chloro-5-fluorobenzyl)-3-hydroxy-2-oxo-1-(2-oxo-1,2-dihydroquinolin-6-yl)pyrrolidine-3-carboxamide], the IC50 was in the range of 0.01 to 1 µM.

For `NC(=O)[C@@]1(O)CCN(c2ccc3c(c2)CCC(=O)N3)C1=O` [B103, (S)-3-Hydroxy-2-oxo-1-(2-oxo-1,2,3,4-tetrahydroquinolin-6-yl)-pyrrolidine-3-carboxamide], the IC50 is > 10 µM.

Take `O=C(NCc1cc(F)cc(Cl)c1)C1(O)CCN(c2ccc3c(c2)c(C(F)(F)F)cn3CO)C1=O` (stereo not shown) [A112, N-(3-Chloro-5-fluorobenzyl)-3-hydroxy-1-(1-hydroxymethyl-3-trifluoromethyl-1H-indol-5-yl)-2-oxopyrrolidine-3-carboxamide]: the 50% inhibitory concentration (IC50) lay in the range of 0.01 to 1 µM.

On to `CNC(=O)c1cccc(N2CCC(O)(C(=O)NCc3cc(F)cc(Cl)c3)C2=O)c1` (stereo not shown) [A133, N-(3-Chloro-5-fluorobenzyl)-3-hydroxy-1-(3-methylcarbamoyl-phenyl)-2-oxopyrrolidine-3-carboxamide], for which the concentration for half-maximal inhibition (IC50) was 0.01 to 1 µM.

With `O=C(NCCO)c1cccc(N2CC[C@@](O)(C(=O)NCc3cc(F)cc(Cl)c3)C2=O)c1` [A91, N-(3-Chloro-5-fluorobenzyl)-(R)-3-hydroxy-1-[3-(2-hydroxy-ethylcarbamoyl)phenyl]-2-oxo-pyrrolidine-3-carboxamide], the IC50 is > 10 µM.

As to `NCCOCCNC(=O)c1cc2cc(N3CC[C@](O)(C(=O)NCc4cc(F)cc(Cl)c4)C3=O)ccc2[nH]1` [B113, N-[2-(2-Aminoethoxy)ethyl]-5-[(S)-3-(3-chloro-5-fluorobenzylcarbamoyl)-3-hydroxy-2-oxopyrrolidin-1-yl]-1H-indole-2-carboxamide], the IC50 was in the range of 0.01 to 1 µM.
